Experimental data reported in PubChem BioAssay AID1259407 (Chemical Carcinogenesis Research Information System (CCRIS), 2018).
The source made the active and inactive calls. How the calls were made is not given here.

System: CCRIS mutagenicity, Ames/micronucleus/aberration tests
Assay: CCRIS mutagenicity studies

SMILES	mutagenic call (Test System: UDS RAT HEPATOCYTES, Strain/Indicator: THY INCORP, Metabolic Activation: NONE, Method: LIQUID SCINTILLATION COUNTING)	mutagenic call (Test System: AMES SALMONELLA TYPHIMURIUM, Strain/Indicator: TA98, Metabolic Activation: NONE, Method: STANDARD PLATE)	mutagenic call (Test System: AMES SALMONELLA TYPHIMURIUM, Strain/Indicator: TA98, Metabolic Activation: RAT, LIVER, S-9, AROCLOR 1254, Method: STANDARD PLATE)	mutagenic call (Test System: AMES SALMONELLA TYPHIMURIUM, Strain/Indicator: TA100, Metabolic Activation: NONE, Method: STANDARD PLATE)	mutagenic call (Test System: AMES SALMONELLA TYPHIMURIUM, Strain/Indicator: TA100, Metabolic Activation: RAT, LIVER, S-9, AROCLOR 1254, Method: STANDARD PLATE)
C=CCc1cc(OC)c(OC)c(OC)c1	active; positive	–	–	–	–
c1ccc2cc3c(ccc4cccnc43)cc2c1	–	inactive; negative	active; positive	inactive; negative	inactive; negative
